Source: patent US10494360B2, “Inhibitors of indoleamine 2,3-dioxygenase” (NETHERLANDS TRANSLATIONAL RESEARCH CENTER B.V., priority 2016, dated 2019)
“And” between values parts separate entries of the source, which are not always exact repeats. Equal values may be shown once.

Biological target: IDO1 (Homo sapiens, UniProt P14902)
Assay: Biochemical IDO1 assay (NFK GreenScreen)
Set-up: Recombinant full-length IDO1 (Seegers, N., et al.) and all other assay components were diluted in IDO1 reaction buffer; made in house
Details: for IC50: recombinant full-length IDO1 25 nM, L-tryptophan 100 μM, NFK Green detection, read-out: IC50, inhibitory potency on IDO1
Experimental: Inhibition of IDO1 activity can be measured by determining the enzymatic conversion of L-tryptophan into N-formylkynurenine (NFK) in a reaction mixture containing IDO1 and test compound. The formation of NFK can be detected directly by, for instance, high-performance liquid chromatography (HPLC) methods, or by intrinsic fluorescence.
Compounds were serially diluted in dimethylsulfoxide (DMSO) and finally in IDO1 reaction buffer, consisting of 50 mM NaH2PO4, pH7.0, supplemented with 0.05% Tween-20 (cat. No. P7949; Sigma Aldrich) and 1% glycerol. Recombinant full-length IDO1 (Seegers, N., et al.) and all other assay components were diluted in IDO1 reaction buffer. […] Subsequently, 10 μl of 0.4 mM of the substrate L-tryptophan was added, i.e., the final concentration of L-tryptophan was 100 μM. The DMSO concentration in the assay was 0.3%. […] Incubation was continued for 60 min at room temperature. Then, 10 μl of NFK Green™ (NTRC, Oss, The Netherlands) was added, the plate was sealed, and the reaction was developed for 3 hours at 37° C. To determine the production of N-formyl kynurenine (NFK), the seal was removed and fluorescence was read on an EnVision multimode reader (Perkin Elmer, Waltham, Mass., USA). IC50 were calculated using XLfit™ software (ID Business Solutions, Ltd., Surrey, U.K.).

Chain of IDO1 (P14902 whole entry, species assumed): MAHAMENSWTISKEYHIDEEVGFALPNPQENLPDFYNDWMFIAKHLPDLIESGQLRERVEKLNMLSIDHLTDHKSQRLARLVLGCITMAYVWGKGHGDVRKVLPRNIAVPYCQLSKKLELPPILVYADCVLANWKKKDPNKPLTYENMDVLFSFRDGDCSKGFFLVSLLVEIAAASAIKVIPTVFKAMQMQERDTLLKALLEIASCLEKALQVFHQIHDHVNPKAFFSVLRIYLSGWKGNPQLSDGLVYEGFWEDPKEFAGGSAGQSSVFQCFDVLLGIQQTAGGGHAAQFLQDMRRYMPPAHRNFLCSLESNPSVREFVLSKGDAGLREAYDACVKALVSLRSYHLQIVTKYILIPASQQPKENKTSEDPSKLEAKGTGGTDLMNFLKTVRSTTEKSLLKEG

IC50	relative activity of separated isomers (less active / most active isomer of the pair, assay not given)	Structure (SMILES)
≤ 5 µM and 1 to 5 µM		O=C1CN(C(=O)c2ccccc2)C(c2ccc(F)c(Cl)c2)N1O (centres unmarked) [Example 50, 1-Benzoyl-2-(3-chloro-4-fluoro-phenyl)-3-hydroxy-imidazolidin-4-one]
≤ 5 µM and 1 to 5 µM		O=C1CN(C(=O)c2ccccc2)C(c2cccc(Cl)c2)N1O (centres unmarked) [Example 60, 1-Benzoyl-2-(3-chlorophenyl)-3-hydroxy-imidazolidin-4-one]
≤ 5 µM and 1 to 5 µM		O=C1CN(C(=O)c2cccnc2Cl)C(c2cccc(Br)c2)N1O (centres unmarked) [Example 61, 2-(3-Bromophenyl)-1-(2-chloropyridine-3-carbonyl)-3-hydroxy-imidazolidin-4-one]
≤ 5 µM and 1 to 5 µM		O=C1CN(C(=O)c2c(F)cccc2F)C(c2ccnc(Br)c2)N1O (centres unmarked) [Example 65, 2-(2-Bromo-4-pyridyl)-1-(2,6-difluorobenzoyl)-3-hydroxy-imidazolidin-4-one]
≤ 5 µM and 1 to 5 µM		Cc1cccc(C2N(O)C(=O)CN2C(=O)c2c(F)cccc2F)c1 (centres unmarked) [Example 69, 1-(2,6-Difluorobenzoyl)-3-hydroxy-2-(m-tolyl)imidazolidin-4-one]
≤ 5 µM and 1 to 5 µM		O=C1CN(C(=O)c2ccc(Cc3ccccc3)cc2)C(c2cccc(Br)c2)N1O (centres unmarked) [Example 74, 1-(4-Benzylbenzoyl)-2-(3-bromophenyl)-3-hydroxy-imidazolidin-4-one]
≤ 1 µM		CC(=O)Nc1ccc(F)c(C(=O)N2CC(=O)N(O)C2c2cccc(Br)c2)c1F (centres unmarked) [Example 77, N-[3-[2-(3-bromophenyl)-3-hydroxy-4-oxo-imidazolidine-1-carbonyl]-2,4-difluoro-phenyl]acetamide]
≤ 5 µM and 1 to 5 µM		Cc1cccc(F)c1C(=O)N1CC(=O)N(O)C1c1cccc(Br)c1 (centres unmarked) [Example 88, 2-(3-Bromophenyl)-1-(2-fluoro-6-methyl-benzoyl)-3-hydroxy-imidazolidin-4-one]
≤ 5 µM and 1 to 5 µM		O=C1CN(C(=O)c2ncccc2F)C(c2cccc(Br)c2)N1O (centres unmarked) [Example 89, 2-(3-Bromophenyl)-1-(3-fluoropyridine-2-carbonyl)-3-hydroxy-imidazolidin-4-one]
≤ 5 µM and 1 to 5 µM		O=C1CN(C(=O)c2cccs2)C(c2cccc(Br)c2)N1O (centres unmarked) [Example 90, 2-(3-Bromophenyl)-3-hydroxy-1-(thiophene-2-carbonyl)imidazolidin-4-one]
≤ 5 µM and 1 to 5 µM		O=C1CN(C(=O)c2ccc(Oc3ccccc3)cc2)C(c2cccc(Br)c2)N1O (centres unmarked) [Example 91, 2-(3-Bromophenyl)-3-hydroxy-1-(4-phenoxybenzoyl)imidazolidin-4-one]
≤ 5 µM and 1 to 5 µM		O=C1CN(C(=O)c2ccc3cn[nH]c3c2)C(c2cccc(Br)c2)N1O (centres unmarked) [Example 103, 2-(3-Bromophenyl)-3-hydroxy-1-(1H-indazole-6-carbonyl)imidazolidin-4-one]
≤ 1 µM		O=C1CN(C(=O)c2c(F)cc(-c3ccccc3)cc2F)C(c2cccc(Br)c2)N1O (centres unmarked) [Example 117, 2-(3-Bromophenyl)-1-(2,6-difluoro-4-phenyl-benzoyl)-3-hydroxy-imidazolidin-4-one]

The remaining lines, values behind:

Structure (SMILES)	IC50	relative activity of separated isomers (less active / most active isomer of the pair, assay not given)
O=C1CN(C(=O)c2c(F)cccc2F)C(c2cccc(Br)c2F)N1O (centres unmarked) [Example 70, 2-(3-Bromo-2-fluoro-phenyl)-1-(2,6-difluorobenzoyl)-3-hydroxy-imidazolidin-4-one]	≤ 5 µM and 1 to 5 µM	
O=C1CN(C(=O)c2c(F)ccc([N+](=O)[O-])c2F)C(c2cccc(Br)c2)N1O (centres unmarked) [Example 75, 2-(3-Bromophenyl)-1-(2,6-difluoro-3-nitro-benzoyl)-3-hydroxy-imidazolidin-4-one]	≤ 1 µM	
CS(=O)(=O)Nc1ccc(F)c(C(=O)N2CC(=O)N(O)C2c2cccc(Br)c2)c1F (centres unmarked) [Example 78, N-[3-[2-(3-bromophenyl)-3-hydroxy-4-oxo-imidazolidine-1-carbonyl]-2,4-difluoro-phenyl]methanesulfonamide]	≤ 5 µM and 1 to 5 µM	
CC(C)c1cc(C(=O)N2CC(=O)N(O)C2c2cccc(Br)c2)no1 (centres unmarked) [Example 96, 2-(3-Bromophenyl)-3-hydroxy-1-(5-isopropylisoxazole-3-carbonyl)imidazolidin-4-one]	≤ 5 µM and 1 to 5 µM	
CS(=O)(=O)c1ccc(-c2ccc(C(=O)N3CC(=O)N(O)C3c3cccc(Br)c3)cc2)cc1 (centres unmarked) [Example 97, 2-(3-Bromophenyl)-3-hydroxy-1-[4-(4-methylsulfonylphenyl)benzoyl]imidazolidin-4-one]	≤ 5 µM and 1 to 5 µM	
CS(=O)(=O)N1CCC(C(=O)N2CC(=O)N(O)C2c2cccc(Br)c2)CC1 (centres unmarked) [Example 100, 2-(3-Bromophenyl)-3-hydroxy-1-(1-methylsulfonylpiperidine-4-carbonyl)imidazolidin-4-one]	≤ 5 µM and 1 to 5 µM	
NS(=O)(=O)N1CCC(C(=O)N2CC(=O)N(O)C2c2cccc(Br)c2)CC1 (centres unmarked) [Example 101, 4-[2-(3-Bromophenyl)-3-hydroxy-4-oxo-imidazolidine-1-carbonyl]piperidine-1-sulfonamide]	≤ 5 µM and 1 to 5 µM	
NCC#Cc1cc(F)c(C(=O)N2CC(=O)N(O)C2c2cccc(Br)c2)c(F)c1 (centres unmarked) [Example 109, 1-[4-(3-Aminoprop-1-ynyl)-2,6-difluoro-benzoyl]-2-(3-bromophenyl)-3-hydroxy-imidazolidin-4-one]	≤ 1 µM	
CS(=O)(=O)NCC#Cc1cc(F)c(C(=O)N2CC(=O)N(O)C2c2cccc(Br)c2)c(F)c1 (centres unmarked) [Example 110, N-[3-[4-[2-(3-bromophenyl)-3-hydroxy-4-oxo-imidazolidine-1-carbonyl]-3,5-difluoro-phenyl]prop-2-ynyl]methanesulfonamide]	≤ 1 µM	
NS(=O)(=O)NCC#Cc1cc(F)c(C(=O)N2CC(=O)N(O)C2c2cccc(Br)c2)c(F)c1 (centres unmarked) [Example 111, 2-(3-Bromophenyl)-1-[2,6-difluoro-4-[3-(sulfamoylamino)prop-1-ynyl]benzoyl]-3-hydroxy-4-oxo-imidazolidine]	≤ 1 µM	
CC(C)(N)C#Cc1cc(F)c(C(=O)N2CC(=O)N(O)C2c2cccc(Br)c2)c(F)c1 (centres unmarked) [Example 112, 1-[4-(3-Amino-3-methyl-but-1-ynyl)-2,6-difluoro-benzoyl]-2-(3-bromophenyl)-3-hydroxy-imidazolidin-4-one]	≤ 5 µM and 1 to 5 µM	
CC(=O)NC(C)(C)C#Cc1cc(F)c(C(=O)N2CC(=O)N(O)C2c2cccc(Br)c2)c(F)c1 (centres unmarked) [Example 113, N-[3-[4-[2-(3-bromophenyl)-3-hydroxy-4-oxo-imidazolidine-1-carbonyl]-3,5-difluoro-phenyl]-1,1-dimethyl-prop-2-ynyl]acetamide]	≤ 5 µM and 1 to 5 µM	
O=C1CN(C(=O)c2c(F)cc(-c3ccc(F)s3)cc2F)C(c2cccc(Br)c2)N1O (centres unmarked) [Example 121, 2-(3-Bromophenyl)-1-[2,6-difluoro-4-(5-fluoro-2-thienyl)benzoyl]-3-hydroxy-imidazolidin-4-one]	≤ 5 µM and 1 to 5 µM	
O=C1CN(C(=O)c2c(F)cc(-c3cccnc3)cc2F)C(c2cccc(Br)c2)N1O (centres unmarked) [Example 123, 2-(3-Bromophenyl)-1-[2,6-difluoro-4-(3-pyridyl)benzoyl]-3-hydroxy-imidazolidin-4-one]	≤ 5 µM and 1 to 5 µM	
O=C1CN(Cc2ccccc2F)C(c2ccc(F)c(Br)c2)N1O (centres unmarked) [Example 126, 2-(3-Bromo-4-fluoro-phenyl)-1-[(2-fluorophenyl)methyl]-3-hydroxy-imidazolidin-4-one]	≤ 1 µM	
CC(C)(C#Cc1cc(F)c(C(=O)N2CC(=O)N(O)C2c2cccc(Br)c2)c(F)c1)NS(N)(=O)=O (centres unmarked) [Example 128, 2-(3-Bromophenyl)-1-[2,6-difluoro-4-[3-methyl-3-(sulfamoylamino)but-1-ynyl]benzoyl]-3-hydroxy-4-oxo-imidazolidine]	≤ 1 µM	
CS(=O)(=O)NCc1cc(F)c(C(=O)N2CC(=O)N(O)C2c2cccc(Br)c2)c(F)c1 (centres unmarked) [Example 130, N-[[4-[2-(3-bromophenyl)-3-hydroxy-4-oxo-imidazolidine-1-carbonyl]-3,5-difluoro-phenyl]methyl]methanesulfonamide]	≤ 1 µM	
O=C1CN(C(=O)c2c(F)cc(CCC3CCCCC3)cc2F)C(c2cccc(Br)c2)N1O (centres unmarked) [Example 131, 2-(3-Bromophenyl)-1-[4-(2-cyclohexylethyl)-2,6-difluoro-benzoyl]-3-hydroxy-imidazolidin-4-one]	≤ 5 µM and 1 to 5 µM	
NS(=O)(=O)NCCCc1cc(F)c(C(=O)N2CC(=O)N(O)C2c2cccc(Br)c2)c(F)c1 (centres unmarked) [Example 132, 2-(3-Bromophenyl)-1-[2,6-difluoro-4-[3-(sulfamoylamino)propyl]benzoyl]-3-hydroxy-4-oxo-imidazolidine]	≤ 1 µM	
O=C1CN(C(=O)c2c(F)cc(N3CCC3)cc2F)C(c2cccc(Br)c2)N1O (centres unmarked) [Example 134, 1-[4-(Azetidin-1-yl)-2,6-difluoro-benzoyl]-2-(3-bromophenyl)-3-hydroxy-imidazolidin-4-one]	≤ 5 µM and 1 to 5 µM	
CN(CCO)c1cc(F)c(C(=O)N2CC(=O)N(O)C2c2cccc(Br)c2)c(F)c1 (centres unmarked) [Example 135, 2-(3-Bromophenyl)-1-[2,6-difluoro-4-[2-hydroxyethyl(methyl)amino]benzoyl]-3-hydroxy-imidazolidin-4-one]	≤ 5 µM and 1 to 5 µM	
CC(c1c(F)cccc1F)N1CC(=O)N(O)C1c1cccc(Br)c1 (centres unmarked) [Example 141a, 2-(3-Bromophenyl)-1-[1-(2,6-difluorophenyl)ethyl]-3-hydroxy-imidazolidin-4-one]		less active isomer
